This note sets out measurements from US9695205B2, “Amide compounds for treatment of complement mediated disorders” (Achillion Pharmaceuticals, Inc., priority 2014, dated 2017).

By IC50 is commonly meant the concentration that inhibits the measured activity by half.

Each structure is given as a SMILES string.

This assay deals with Human factor D (Homo sapiens (Human), UniProt P00746). Nature of the assay: Human Factor D Assay. The class given is biochemical. The following applies: Human factor D 80 nM, substrate Z-L-Lys-SBzl and DTNB 100 μM each, pH 7.5. As to the method: Example 14. Human Factor D Assay
Human factor D (purified from human serum, Complement Technology, Inc.) at 80 nM final concentration is incubated with test compound at various concentrations for 5 minutes at room temperature in 50 mM Tris, 1M NaCl, pH 7.5. A synthetic substrate Z-L-Lys-SBzl and DTNB (Ellman's reagent) are added to final concentrations of 100 μM each. The increase in color is recorded at OD405 nm in a microplate in kinetic mode over 30 minutes with 30 second time points in a spectrofluorimeter. IC50 values are calculated by non-linear regression from the percentage of inhibition of complement factor D activity as a function of test compound concentration.

Human factor D, sequence (P00746 26-253): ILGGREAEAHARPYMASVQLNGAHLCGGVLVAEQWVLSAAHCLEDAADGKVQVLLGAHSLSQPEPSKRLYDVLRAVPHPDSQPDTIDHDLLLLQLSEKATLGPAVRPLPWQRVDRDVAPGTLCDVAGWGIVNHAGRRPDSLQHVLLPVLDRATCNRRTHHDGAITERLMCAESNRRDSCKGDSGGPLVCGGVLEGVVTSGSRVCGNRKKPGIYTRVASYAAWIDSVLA

`CC(=O)c1cn(CC(=O)N2C[C@H](F)C[C@H]2C(=O)NCc2cccc(Cl)c2F)c2cc(C(=O)N[C@H]3CCN(C(=O)OC(C)(C)C)C3)ccc12` [Compound 44, (S)-tert-butyl 3-(3-acetyl-1-(2-((2S,4R)-2-(3-chloro-2-fluorobenzylcarbamoyl)-4-fluoropyrrolidin-1-yl)-2-oxoethyl)-1H-indole-6-carboxamido) pyrrolidine-1-carboxylate]: the IC50 was < 1000 nM.

In the case of `CC(=O)c1cn(CC(=O)N2C[C@H](F)C[C@H]2C(=O)NCc2cccc(Cl)c2F)c2cc(NC(=O)OC(C)(C)C)ccc12` [Compound 37, tert-butyl 3-acetyl-1-(2-((2S,4R)-2-(3-chloro-2-fluorobenzylcarbamoyl)-4-fluoropyrrolidin-1-yl)-2-oxoethyl)-1H-indol-6-ylcarbamate], the IC50 was < 1000 nM. As for `NC(=O)c1nn(CC(=O)N2C[C@H](F)C[C@H]2C(=O)Nc2cccc(Br)n2)c2ccc(NC(=O)N3CCCC(F)(F)C3)cc12` [Compound 33, 1-(2-((2S,4R)-2-(6-bromopyridin-2-ylcarbamoyl)-4-fluoropyrrolidin-1-yl)-2-oxoethyl)-5-(3,3-difluoropiperidine-1-carboxamido)-1H-indazole-3-carboxamide], the concentration for half-maximal inhibition (IC50) was < 1000 nM. Turning to `CC(=O)c1cn(CC(=O)N2[C@@H]3C[C@@H]3C[C@H]2C(=O)NCc2cccc(Cl)c2F)c2ccc(NC(=O)NC3CC3)cc12` [Compound 3, (1R,3S,5R)-2-(2-(3-acetyl-5-(3-cyclopropylureido)-1H-indol-1-yl)acetyl)-N-(3-chloro-2-fluorobenzyl)-2-azabicyclo[3.1.0]hexane-3-carboxamide], the half-inhibitory concentration (IC50) is < 1000 nM. Take `NC(=O)c1nn(CC(=O)N2[C@@H]3C[C@@H]3C[C@H]2C(=O)Nc2cccc(-c3ccccc3Cl)c2F)c2ccc(NC(=O)N3CCCC(F)(F)C3)cc12` [Compound 28, 1-(2-((1R,3S,5R)-3-(2′-chloro-2-fluorobiphenyl-3-ylcarbamoyl)-2-azabicyclo[3.1.0]hexan-2-yl)-2-oxoethyl)-5-(3,3-difluoropiperidine-1-carboxamido)-1H-indazole-3-carboxamide]: the 50% inhibitory concentration (IC50) is < 1000 nM. `CC(=O)c1cn(CC(=O)N2C[C@H](F)C[C@H]2C(=O)NCc2cccc(Cl)c2F)c2ccc(C(=O)NC3CC3)cc12` [Compound 41, 3-acetyl-1-(2-((2S,4R)-2-(3-chloro-2-fluorobenzylcarbamoyl)-4-fluoropyrrolidin-1-yl)-2-oxoethyl)-N-cyclopropyl-1H-indole-5-carboxamide]: the concentration for half-maximal inhibition (IC50) was < 1000 nM.

Turning to `CC(=O)c1cn(CC(=O)N2C[C@H](F)C[C@H]2C(=O)NCc2cccc(Cl)c2F)c2ccc(NC(=O)NC(C)C)cc12` [Compound 6, (2S,4R)-1-(2-(3-acetyl-5-(3-isopropylureido)-1H-indol-1-yl)acetyl)-N-(3-chloro-2-fluorobenzyl)-4-fluoropyrrolidine-2-carboxamide], the IC50 is < 1000 nM.

Consider `CC(=O)c1cn(CC(=O)N2C[C@H](F)C[C@H]2C(=O)Nc2cccc(-c3ccccc3Cl)c2F)c2ccc(NC(=O)N3CCCC(F)(F)C3)cc12` [Compound 18, N-(3-acetyl-1-(2-((2S,4R)-2-(2′-chloro-2-fluorobiphenyl-3-ylcarbamoyl)-4-fluoropyrrolidin-1-yl)-2-oxoethyl)-1H-indol-5-yl)-3,3-difluoropiperidine-1-carboxamide], for which the half-maximal inhibitory concentration (IC50) is < 1000 nM. With `CC(=O)c1cn(CC(=O)N2C[C@H](F)C[C@H]2C(=O)NCc2cccc(Cl)c2F)c2ccc(NC(=O)N3CCCC3)cc12` [Compound 9, N-(3-acetyl-1-(2-((2S,4R)-2-(3-chloro-2-fluorobenzylcarbamoyl)-4-fluoropyrrolidin-1-yl)-2-oxoethyl)-1H-indol-5-yl)pyrrolidine-1-carboxamide], the IC50 is < 1000 nM. The value for `CC(=O)c1cn(CC(=O)N2C[C@H](F)C[C@H]2C(=O)NCc2cccc(Cl)c2F)c2cc(C(=O)NCC3CCNC3)ccc12` (stereo partly drawn) [Compound 49, 3-acetyl-1-(2-((2S,4R)-2-(3-chloro-2-fluorobenzylcarbamoyl)-4-fluoropyrrolidin-1-yl)-2-oxoethyl)-N-(pyrrolidin-3-ylmethyl)-1H-indole-6-carboxamide] was < 1000 nM; that for `CC(=O)c1cn(CC(=O)N2C[C@H](F)C[C@H]2C(=O)Nc2cccc(-c3ccccc3Cl)c2F)c2ccc(NC(=O)C3CCC(F)(F)C3)cc12` (stereo partly drawn) [Compound 35, (2S,4R)-1-(2-(3-acetyl-5-(3,3-difluorocyclopentanecarboxamido)-1H-indol-1-yl)acetyl)-N-(2′-chloro-2-fluorobiphenyl-3-yl)-4-fluoropyrrolidine-2-carboxamide] was < 1000 nM; that for `CC(=O)c1cn(CC(=O)N2C[C@H](F)C[C@H]2C(=O)Nc2cccc(OC(F)(F)F)c2F)c2ccc(NC(=O)N3CCCC(F)(F)C3)cc12` [Compound 17, N-(3-acetyl-1-(2-((2S,4R)-4-fluoro-2-(2-fluoro-3-(trifluoromethoxy)phenylcarbamoyl)pyrrolidin-1-yl)-2-oxoethyl)-1H-indol-5-yl)-3,3-difluoropiperidine-1-carboxamide] was < 1000 nM. Take `CC(=O)c1cn(CC(=O)N2C[C@H](F)C[C@H]2C(=O)Nc2cccc(-c3ccccc3Cl)c2F)c2ccc(NC(=O)CC(F)(F)F)cc12` [Compound 36, (2S,4R)-1-(2-(3-acetyl-5-(3,3,3-trifluoropropanamido)-1H-indol-1-yl)acetyl)-N-(2′-chloro-2-fluorobiphenyl-3-yl)-4-fluoropyrrolidine-2-carboxamide]: the concentration for half-maximal inhibition (IC50) was < 1000 nM.

`CC(=O)c1cn(CC(=O)N2C[C@H](F)C[C@H]2C(=O)NCc2cccc(Cl)c2F)c2ccc(NC(=O)Nc3ccon3)cc12` [Compound 19, (2S,4R)-1-(2-(3-acetyl-5-(3-isoxazol-3-ylureido)-1H-indol-1-yl)acetyl)-N-(3-chloro-2-fluorobenzyl)-4-fluoropyrrolidine-2-carboxamide]: the IC50 was < 1000 nM. For `CC(=O)c1cn(CC(=O)N2C[C@H](F)C[C@H]2C(=O)NCc2cccc(Cl)c2F)c2cc(C(=O)NS(=O)(=O)C3CC3)ccc12` [Compound 48, 3-acetyl-1-(2-((2S,4R)-2-(3-chloro-2-fluorobenzylcarbamoyl)-4-fluoropyrrolidin-1-yl)-2-oxoethyl)-N-(cyclopropylsulfonyl)-1H-indole-6-carboxamide], the concentration for half-maximal inhibition (IC50) was < 1000 nM. In the case of `CC(=O)c1cn(CC(=O)N2C[C@H](F)C[C@H]2C(=O)NCc2cccc(Cl)c2F)c2ccc(NC(=O)NCc3ccon3)cc12` [Compound 7, (2S,4R)-1-(2-(3-acetyl-5-(3-(isoxazol-3-ylmethyl)ureido)-1H-indol-1-yl)acetyl)-N-(3-chloro-2-fluorobenzyl)-4-fluoropyrrolidine-2-carboxamide], the concentration for half-maximal inhibition (IC50) is < 1000 nM. For the compound `CC(=O)c1cn(CC(=O)N2C[C@H](F)C[C@H]2C(=O)Nc2cccc(OC(F)(F)F)c2F)c2ccc(NC(=O)NC3CC3)cc12` [Compound 10, (2S,4R)-1-(2-(3-acetyl-5-(3-cyclopropylureido)-1H-indol-1-yl)acetyl)-4-fluoro-N-(2-fluoro-3-(trifluoromethoxy)phenyl) pyrrolidine-2-carboxamide], the IC50 was < 1000 nM.

In the case of `CC(=O)c1cn(CC(=O)N2C[C@H](F)C[C@H]2C(=O)NCc2cccc(Cl)c2F)c2ccc(C(=O)N3CC=C(B(O)O)CC3)cc12` [Compound 38, 1-(3-acetyl-1-(2-((2S,4R)-2-(3-chloro-2-fluorobenzylcarbamoyl)-4-fluoropyrrolidin-1-yl)-2-oxoethyl)-1H-indole-5-carbonyl)-1,2,3,6-tetrahydropyridin-4-ylboronic acid], the 50% inhibitory concentration (IC50) is < 1000 nM. Turning to `CC(=O)c1cn(CC(=O)N2C[C@H](F)C[C@H]2C(=O)NCc2cccc(Cl)c2F)c2ccc(NC(=O)NC3CC3)cc12` [Compound 1, (2S,4R)-1-(2-(3-acetyl-5-(3-cyclopropylureido)-1H-indol-1-yl)acetyl)-N-(3-chloro-2-fluorobenzyl)-4-fluoropyrrolidine-2-carboxamide], the half-maximal inhibitory concentration (IC50) was < 1000 nM. Turning to `CC(=O)c1cn(CC(=O)N2C[C@H](F)C[C@H]2C(=O)NCc2cccc(Cl)c2F)c2ccc(NC(=O)N3CCC(F)(F)C3)cc12` [Compound 13], the 50% inhibitory concentration (IC50) was < 1000 nM. Regarding `CC(=O)c1cn(CC(=O)N2C[C@H](F)C[C@H]2C(=O)NCc2cccc(Cl)c2F)c2ccc(NC(=O)NCc3ncccn3)cc12` [Compound 8, (2S,4R)-1-(2-(3-acetyl-5-(3-(pyrimidin-2-ylmethyl)ureido)-1H-indol-1-yl)acetyl)-N-(3-chloro-2-fluorobenzyl)-4-fluoropyrrolidine-2-carboxamide], the IC50 was < 1000 nM. For `CC(=O)c1cn(CC(=O)N2C[C@H](F)C[C@H]2C(=O)NCc2cccc(Cl)c2F)c2ccc(NC(=O)Nc3cncnc3)cc12` [Compound 23, (2S,4R)-1-(2-(3-acetyl-5-(3-pyrimidin-5-ylureido)-1H-indol-1-yl)acetyl)-N-(3-chloro-2-fluorobenzyl)-4-fluoropyrrolidine-2-carboxamide], the IC50 was < 1000 nM.

Consider `CC(=O)c1cn(CC(=O)N2C[C@H](F)C[C@H]2C(=O)NCc2cccc(Cl)c2F)c2cc(C(=O)N3CCC(CN)C3)ccc12` (stereo partly drawn) [Compound 42, (2S,4R)-1-(2-(3-acetyl-6-(3-(aminomethyl)pyrrolidine-1-carbonyl)-1H-indol-1-yl)acetyl)-N-(3-chloro-2-fluorobenzyl)-4-fluoropyrrolidine-2-carboxamide], for which the 50% inhibitory concentration (IC50) is < 1000 nM. The value for `CC(=O)c1cn(CC(=O)N2C[C@H](F)C[C@H]2C(=O)NCc2cccc(Cl)c2F)c2ccc(C(=O)N3CC4CCC3C4)cc12` (stereo partly drawn) [Compound 39, (2S,4R)-1-(2-(3-acetyl-5-(2-azabicyclo[2.2.1]heptane-2-carbonyl)-1H-indol-1-yl)acetyl)-N-(3-chloro-2-fluorobenzyl)-4-fluoropyrrolidine-2-carboxamide] was < 1000 nM.
